In publication PMC7403315, “Cyclic peptide FXII inhibitor provides safe anticoagulation in a thrombosis model and in artificial lungs” (Nature Communications, 2020):
Read-outs that look alike come from different tables or passages of the source. Blank lines part the entries; values can stand above or below the compound they belong to. Starred links: 1 amine or outer side, 2 acyl side, 3 side chain; linkers in the order of their positions; H or OH if unused. Positions of bridges follow the written chain, without caps; N, C: chain ends. Non-standard residues stand in square brackets, D forms with d. Residues, ends and D or L forms follow the SMILES beside them. TATA = O=C(CC[*:1])N1CN(C(=O)CC[*:2])CN(C(=O)CC[*:3])C1; Phe(4-F) = N[C@@H](Cc1ccc(F)cc1)C(=O)O; β3hR = N=C(N)NCCC[C@H](N)CC(=O)O

Target: T1, recombinant pig FXIIa (Sus scrofa, UniProt O97507)
T1 construct: of FXII into a heavy chain (HC) and a light chain (LC); made in house; host or cells: CHO cells
T1 sequence (O97507 20-616): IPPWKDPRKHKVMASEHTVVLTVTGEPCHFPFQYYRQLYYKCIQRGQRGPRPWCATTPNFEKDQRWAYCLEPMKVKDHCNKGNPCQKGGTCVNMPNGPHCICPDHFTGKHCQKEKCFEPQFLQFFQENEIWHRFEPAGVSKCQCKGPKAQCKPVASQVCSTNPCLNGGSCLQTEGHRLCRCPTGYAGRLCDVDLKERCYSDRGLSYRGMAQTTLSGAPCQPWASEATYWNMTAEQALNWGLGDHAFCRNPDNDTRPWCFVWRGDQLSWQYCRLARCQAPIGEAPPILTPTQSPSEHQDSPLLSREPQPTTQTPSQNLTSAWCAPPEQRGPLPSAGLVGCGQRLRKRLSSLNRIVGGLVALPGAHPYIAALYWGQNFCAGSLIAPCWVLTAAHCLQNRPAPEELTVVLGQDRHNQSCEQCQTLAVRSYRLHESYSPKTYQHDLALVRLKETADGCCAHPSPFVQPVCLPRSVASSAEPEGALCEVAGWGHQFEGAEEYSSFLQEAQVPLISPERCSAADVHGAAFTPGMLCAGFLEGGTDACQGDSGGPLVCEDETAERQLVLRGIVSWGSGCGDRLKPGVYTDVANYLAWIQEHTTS
Experiment: Inhibition of recombinant FXIIa (rFXIIa)
Assay type: biochemical
Text: The protein sequences for human, rabbit and pig factor XII were taken from the following database entries: human FXII: UniProtKB - P00748; rabbit FXII: NCBI RefSeq - XP_008253687.1; pig FXII: UniProtKB - O97507. The sequences are shown in the Supplementary Methods. DNA encoding the full-length proteins were ordered from Eurofins Genomics. The codons in these sequences were optimized for mammalian expression using the codon optimization tool from Integrated DNA Technologies (IDT). In addition to the FXII gene, the ordered DNA sequences encode a C-terminal GSGS-linker, a His6-tag and a stop codon, and they are flanked by NheI (GCTAGC) and a HindIII (AAGCTT) restriction sites. The entire DNA sequences are provided in the supporting materials. The DNA sequences were cloned into the pEXPR-IBA42 vector downstream of a BM40 signal sequence for secreted expression in mammalian cells. The ligated vector was transformed into DH5 alpha electrocompetent E. coli cells. Plasmid DNA from single clones was sequenced by Sanger sequencing.
1.5 mg plasmid DNA was transfected into 500 ml CHO cells (Thermo Fisher Scientific) in cell suspension culture using polyethylenimine (PEI). Cells were incubated for seven days at 37 °C, 5% CO2 under shaking conditions. The cells were removed by centrifugation and the secreted protein was purified from the supernatant using a nickel-charged immobilized metal affinity chromatography (IMAC) column (5 ml HisTrap FF Crude, GE Healthcare). The column was equilibrated with buffer containing 15 mM imidazole, 100 mM NaCl, 20 mM Tris-HCl, pH 7.4. The pH of the cell culture supernatant was adjusted to 8.0 using NaOH. The supernatant was run through the column at a flow of 5 ml per min. The column was washed with 20 column volumes of equilibration buffer at a flow of 5 ml per min. The protein was eluted with 500 mM imidazole, 100 mM NaCl, 20 mM Tris-HCl, pH 7.4 at a flow of 5 ml per min. The buffer was subsequently exchanged to 100 mM NaCl, 20 mM Tris-HCl, pH 7.4 by three iterative steps of 10-fold dilution and 10-fold concentration using a 10,000 MWCO centrifugal concentrator. The concentration was determined by measuring absorption at 280 nm (ε = 100,000). For the activation of recombinant FXII, 10 μg protein was diluted to a total volume of 10 μl 100 mM NaCl, 20 mM Tris-HCl, pH 7.4 and further diluted with 10 μl of 2-fold concentrated assay buffer (300 mM NaCl, 20 mM MgCl2, 2 mM CaCl2, 20 mM Tris-HCl, 0.02% (v/v) Triton-X100, pH 7.4). Dextran sulfate 500 kDa (DXS500) was added to a final concentration of 0.2 μg μl^−1 and incubated for 1 hour at 37 °C. 5 μg protein was analyzed by SDS-PAGE under reducing conditions.
Protease inhibition assays
The inhibitory activity of peptides was determined by measuring the residual protease activity with a fluorogenic substrate. The assay was performed in buffer containing 10 mM Tris-Cl, pH […]
1% (v/v) DMSO in a volume of 150 µl. FXIIa activity was measured with the fluorogenic substrate Boc-Gln-Gly-Arg-AMC (Bachem) at a final concentration of 50 µM. Mouse α-FXIIa (Molecular Innovations cat # MFXIIA) and human β-FXIIa (Molecular Innovations cat # HFXIIAB) were used at final concentrations of 0.4 nM. The reaction was pipetted as follows: 50 µl of bicyclic peptide in assay buffer were added to 50 µl of FXIIa in assay buffer and incubated for 10 minutes at 25°C before 50 µl of 150 µM fluorogenic substrate in assay buffer were added to measure the residual protease activity with an Infinite M200Pro fluorescence plate reader (excitation at 368 nm, emission at 467 nm; Tecan) for a period of 30 minutes with a read every minute at 25°C. The Tecan software i-control (version 1.1) was used for data analysis. Stock solutions of 1 mM bicyclic peptide were prepared by either dissolving the unpurified cyclization reaction with water or by dissolving purified and lyophilized peptide in water. The bicyclic peptides were serially diluted two-fold using assay buffer. Sigmoidal curves were fitted to the […]

- remaining activity at 0.00195312 µM (Recombinant pig FXII, peptide 1.95312 nM, individual plates, read-out: Residual activity (%)): 102%
- remaining activity at 0.00390625 µM (Recombinant pig FXII, peptide 3.90625 nM, individual plates, read-out: Residual activity (%)): 103%
- remaining activity at 0.0078125 µM (Recombinant pig FXII, peptide 7.8125 nM, individual plates, read-out: Residual activity (%)): 95.8%
- remaining activity at 0.015625 µM (Recombinant pig FXII, peptide 15.625 nM, individual plates, read-out: Residual activity (%)): 92.8%
- remaining activity at 0.03125 µM (Recombinant pig FXII, peptide 31.25 nM, individual plates, read-out: Residual activity (%)): 87.6%
- remaining activity at 0.0625 µM (Recombinant pig FXII, peptide 62.5 nM, individual plates, read-out: Residual activity (%)): 82.2%
- remaining activity at 0.125 µM (Recombinant pig FXII, peptide 125 nM, individual plates, read-out: Residual activity (%)): 71%
- remaining activity at […] (Recombinant pig FXII, peptide 250 nM, individual plates, read-out: Residual activity (%)): 54.9%
- remaining activity at 0.5 µM (Recombinant pig FXII, peptide 500 nM, individual plates, read-out: Residual activity (%)): 38%
- remaining activity at 1 µM (Recombinant pig FXII, peptide 1000 nM, individual plates, read-out: Residual activity (%)): 21.5%
- remaining activity at 2 µM (Recombinant pig FXII, peptide 2000 nM, individual plates, read-out: Residual activity (%)): 14.6%
Structure (SMILES): CC(C)C[C@@H]1NC(=O)[C@H](CCC(N)=O)NC(=O)[C@H](CCCNC(=N)N)NC(=O)[C@@H]2CSCCC(=O)N3CN(CN(C3)C(=O)CCSC[C@H](NC(=O)[C@@H](N)CCCNC(=N)N)C(=O)N[C@@H](Cc3ccccc3)C(=O)N[C@@H](CCCNC(=N)N)C(=O)N[C@@H](CC(C)C)C(=O)N3CCC[C@H]3C(=O)N2)C(=O)CCSC[C@@H](C(=O)N[C@@H](CCCNC(=N)N)C(N)=O)NC(=O)[C@H](CCCNC(=N)N)NC1=O [FXII618]

Structure (SMILES): CC(C)C[C@@H]1NC(=O)[C@H](CCC(N)=O)NC(=O)[C@H](Cc2c[nH]cn2)NC(=O)[C@@H]2CSCCC(=O)N3CN(CN(C3)C(=O)CCSC[C@H](NC(=O)[C@@H](CO)NC(=O)[C@H](N)CCCNC(=N)N)C(=O)N[C@@H](Cc3ccc(F)cc3)C(=O)N[C@@H](CCCNC(=N)N)C(=O)N[C@@H](CC(C)C)C(=O)N3CCC[C@H]3C(=O)N2)C(=O)CCSC[C@@H](C(N)=O)NC(=O)C[C@H](CCCNC(=N)N)NC1=O [FXII900] (H-[dR][dS]C[Phe(4-F)]RLPCHQL[β3hR]C-NH2; linker 3-8-13 via TATA)
- Ki: 17.4 ± 1.4 nM
- remaining activity at 0.0005 µM (read-out: Residual activity (%), Recombinant pig FXII, peptide 0.5 nM, individual plates): 99.6%
- remaining activity at 0.001 µM (read-out: Residual activity (%), Recombinant pig FXII, peptide 1 nM, individual plates): 93.5%
- remaining activity at 0.002 µM (read-out: Residual activity (%), Recombinant pig FXII, peptide 2 nM, individual plates): 91.1%
- remaining activity at 0.004 µM (read-out: Residual activity (%), Recombinant pig FXII, peptide 4 nM, individual plates): 83.3%
- remaining activity at 0.008 µM (read-out: Residual activity (%), Recombinant pig FXII, peptide 8 nM, individual plates): 71.6%
- remaining activity at […] (read-out: Residual activity (%), Recombinant pig FXII, peptide 16 nM, individual plates): 55.5%
- remaining activity at […] (read-out: Residual activity (%), Recombinant pig FXII, peptide 32 nM, individual plates): 38.2%
- remaining activity at 0.064 µM (read-out: Residual activity (%), Recombinant pig FXII, peptide 64 nM, individual plates): 23.5%
- remaining activity at 0.128 µM (read-out: Residual activity (%), Recombinant pig FXII, peptide 128 nM, individual plates): 11.5%
- remaining activity at 0.256 µM (read-out: Residual activity (%), Recombinant pig FXII, peptide 256 nM, individual plates): 7.16%
- remaining activity at 0.512 µM (read-out: Residual activity (%), Recombinant pig FXII, peptide 512 nM, individual plates): 5.15%
